The source of these data is ChEMBL document CHEMBL5385890, “A JAK tyrosine kinase and pseudokinase Co-inhibition strategy combines enhanced potency and on-demand activation” (Eur J Med Chem, 2023).

Calls of active or inactive are those of the source. No cut-off for these calls is given here. Where only a bound is given, the exact number is not on record here.

Data set [1] concerns HEL. Description: Cytotoxicity against HEL cells assessed as inhibition of cell growth. It is filed as functional, cell-based. The conditions noted are these: Homo sapiens.
The test system of data set [2] is HEL. Nature of the data set: Inhibition of JAK/STAT phosphorylation in HEL cells assessed as reduction in STAT3 phosphorylation at 1 uM incubated under dark condition by Western blot analysis relative to control. Format: cell-based. As to conditions: Homo sapiens.
Data set [3] in a line: Stability of compound in mouse plasma measured after 24 hrs. It is filed as ADME, cell-free. As to conditions: read-out: Stability.
Data set [4] is described as follows: Prodrug release in HEL cells assessed as N-tert-butyl-3-[[5-methyl-2-(4-piperazin-1-ylanilino)pyrimidin-4-yl]amino]benzenesulfonamide formation at 1 uM illuminated with 405 nm light for 10 mins and measured after 6 hrs by LC-MS/MS analysis. It is filed as ADME, cell-based. The conditions noted are these: human, 6.167 h, time 370 min.
Data set [5] in a line: Prodrug release in HEL cells assessed as 3-cyclopropyl-1-(3-{5-[(morpholin-4-yl)methyl]-1H-1,3-benzodiazol-2-yl}-1H-pyrazol-4-yl)urea formation at 1 uM illuminated with 405 nm light for 10 mins and measured after 6 hrs by LC-MS/MS analysis. It is filed as ADME, cell-based. As to conditions: human, 6.167 h, time 370 min.
A short description of data set [6]: Stability of compound in human plasma measured after 24 hrs. Format: ADME, cell-free. The conditions noted are these: read-out: Stability.
Data set [7] is described as follows: Cytotoxicity against HUVEC cells assessed as inhibition of cell growth. It is filed as toxicity, cell-based. The conditions noted are these: human.
Data set [8] has as its system HEL. Nature of the data set: Cytotoxicity against HEL cells assessed as inhibition of cell growth irradiated with 450 nm light. Format: functional, cell-based. As to conditions: Homo sapiens, light or radiation study.
Data set [9] relates to HEL. Description: Cytotoxicity against HEL cells assessed as inhibition of cell growth incubated under dark condition. The conditions noted are these: Homo sapiens. It is filed as functional, cell-based.
A short description of data set [10]: Stability of compound in PBS measured after 24 hrs. It is filed as physicochemical. The conditions noted are these: PBS, read-out: Stability.
For data set [11], the system named is HEL. Description: Inhibition of JAK/STAT phosphorylation in HEL cells assessed as reduction in STAT3 phosphorylation at 1 uM irradiated with 450 nm light by Western blot analysis relative to control. The conditions noted are these: Homo sapiens. Format: cell-based. A general note: Immunoblotting shows a protein as a band on a membrane.
The nature of data set [12]: Prodrug release in HEL cells assessed as 3-cyclopropyl-1-(3-{5-[(morpholin-4-yl)methyl]-1H-1,3-benzodiazol-2-yl}-1H-pyrazol-4-yl)urea formation at 1 uM incubated under dark condition for 6 hrs by LC-MS/MS analysis. Format: ADME, cell-based. The conditions noted are these: human.
Data set [13] concerns HEL. Description: Inhibition of JAK/STAT phosphorylation in HEL cells assessed as reduction in STAT5 phosphorylation at 1 uM irradiated with 450 nm light by Western blot analysis relative to control. The conditions noted are these: Homo sapiens. Format: cell-based.
In data set [14] the test system is HEL. Description: Inhibition of JAK/STAT phosphorylation in HEL cells assessed as reduction in STAT5 phosphorylation at 1 uM incubated under dark condition by Western blot analysis relative to control. Format: cell-based. As to conditions: Homo sapiens.
The nature of data set [15]: Prodrug release in HEL cells assessed as N-tert-butyl-3-[[5-methyl-2-(4-piperazin-1-ylanilino)pyrimidin-4-yl]amino]benzenesulfonamide formation at 1 uM incubated under dark condition for 6 hrs by LC-MS/MS analysis. It is filed as ADME, cell-based. The conditions noted are these: human.
Data set [16] relates to BaF3. Description: Cytotoxicity against mouse BaF3 cells harboring EPOR JAK2 V617F mutant measured after 24 hrs by XTT assay. Format: functional, cell-based. As to conditions: BaF3, 24 h. (In general: Tetrazolium dyes change colour on reduction, which living cells bring about.)

Take `CC[C@@](C)(Nc1ccnc(-c2c[nH]c3ncccc23)n1)C(=O)NCC(F)(F)F` [DECERNOTINIB]: the IC50 (in general, the concentration that gives 50% inhibition) in data set [1] worked out at 2560 nM.
As for `CCN(CC)c1ccc2c(COC(=O)Oc3c(COC(=O)N4CCN(c5ccc(Nc6ncc(C)c(Nc7cccc(S(=O)(=O)NC(C)(C)C)c7)n6)cc5)CC4)cc(C)cc3COC(=O)n3cc(NC(=O)NC4CC4)c(-c4nc5cc(CN6CCOCC6)ccc5[nH]4)n3)cc(=O)oc2c1`, the inhibition result in data set [2] and in [14] was “inactive” each time. Moreover, the remaining at 24 h in data set [3] is > 82.8%; in data set [6], > 78.3%; in data set [10] it was > 95.1%. For the same compound, the Drug metabolism result in data set [4] is “Metabolite_Detected”; in data set [5], “Metabolite_Detected”; in [12], “Metabolite_Notdetected”; in data set [15], “Metabolite_Notdetected”. For the same compound, the values for the IC50 in [7], in data set [8] and in data set [9] were > 200000 nM, 1810 nM and > 200000 nM, respectively. Moreover, the inhibition in [11] and in [13] was 100% in each case.
As to `Cc1cnc(Nc2ccc(N3CCN(C)CC3)cc2)nc1Nc1cccc(S(=O)(=O)NC(C)(C)C)c1`, it took 170 nM to reach half-maximal inhibition in [16] (IC50).
As to `C[C@@H]1CCN(C(=O)CC#N)C[C@@H]1N(C)c1ncnc2[nH]ccc12` [TOFACITINIB], the IC50 in data set [1] stood at 3830 nM.
